How the values were obtained:
Assay type in all cases: in vivo
Conditions in all cases: 1000 g ai/ha, 0 to 100 scale, 0 no effect, 100 complete control
[1] = tested on: wheat (Triticum aestivum); experiment: Test A preemergence, wheat
Excerpt: (§1) Seeds of plant species selected from barnyardgrass (Echinochloa crus-galli), crabgrass, large (large crabgrass, Digitaria sanguinalis), kochia (Kochia scoparia), ragweed (common ragweed, Ambrosia elatior), morningglory (Ipomoea spp.), velvetleaf (Abutilon theophrasti), ryegrass, Italian (Italian ryegrass, Lolium multiflorum), foxtail, giant (giant foxtail, Setaria faberii), wheat (Triticum aestivum), corn (Zea mays), and pigweed (Amaranthus retroflexus), were planted into a blend of loam soil and sand and treated preemergence with a directed soil spray using test chemicals formulated in a non-phytotoxic solvent mixture which included a surfactant. At the same time, plants selected from these crop and weed species and also blackgrass (Alopecurus myosuroides), and galium (catchweed bedstraw, Galium aparine), were planted in pots containing the same blend of loam soil and sand and treated with postemergence applications of test chemicals formulated in the same manner. Plants ranged in height from 2 to 10 cm and were in the one- to two-leaf stage for the postemergence treatment. Treated plants and untreated controls were maintained in a greenhouse for approximately 10 d, after which time all treated plants were compared to untreated controls and visually evaluated for injury. Plant response ratings, summarized in Table A, are based on a 0 to 100 scale where 0 is no effect and 100 is complete control. A dash (-) response means no test result.

[2] = tested on: pigweed (Amaranthus retroflexus); experiment: Test A postemergence, pigweed
How it was run: (§2)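 Visual injury scores (0 = no effect, 100 = complete control) were assigned roughly 10 d after treatment by comparison with untreated controls. Chemicals, formulated in a non-phytotoxic solvent mixture containing surfactant, were applied as a preemergence directed soil spray or postemergence to one- to two-leaf plants 2 to 10 cm tall.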

[3] = tested on: foxtail, giant (giant foxtail, Setaria faberii); experiment: Test A postemergence, foxtail, giant
How it was run: as §2

[4] = tested on: barnyardgrass (Echinochloa crus-galli); experiment: Test A preemergence, barnyardgrass
How it was run: as §2

[5] = tested on: velvetleaf (Abutilon theophrasti); experiment: Test A postemergence, velvetleaf
Excerpt: as §1

[6] = tested on: pigweed (Amaranthus retroflexus); experiment: Test A preemergence, pigweed
How it was run: as §2

[7] = tested on: velvetleaf (Abutilon theophrasti); experiment: Test A preemergence, velvetleaf
Excerpt: as §1

[8] = tested on: morningglory (Ipomoea spp.); experiment: Test A preemergence, morningglory
Excerpt: as §1

[9] = tested on: wheat (Triticum aestivum); experiment: Test A postemergence, wheat
How it was run: as §2

corn (Zea mays) [10] = experiment: Test A preemergence, corn
Excerpt: as §1

corn (Zea mays) [11] = experiment: Test A postemergence, corn
How it was run: as §2

[12] = tested on: crabgrass, large (large crabgrass, Digitaria sanguinalis); experiment: Test A preemergence, crabgrass, large
Excerpt: as §1

[13] = tested on: barnyardgrass (Echinochloa crus-galli); experiment: Test A postemergence, barnyardgrass
How it was run: as §2

[14] = tested on: crabgrass, large (large crabgrass, Digitaria sanguinalis); experiment: Test A postemergence, crabgrass, large
Excerpt: as §1

[15] = tested on: foxtail, giant (giant foxtail, Setaria faberii); experiment: Test A preemergence, foxtail, giant
How it was run: as §2

[16] = tested on: morningglory (Ipomoea spp.); experiment: Test A postemergence, morningglory
Excerpt: as §1

Compound | Plant response rating, Wheat [1] | Plant response rating, Pigweed [2] | Plant response rating, Foxtail, Giant [3] | Plant response rating, Barnyardgrass [4] | Plant response rating, Velvetleaf [5] | Plant response rating, Pigweed [6] | Plant response rating, Velvetleaf [7] | Plant response rating, Morningglory [8] | Plant response rating, Wheat [9] | Plant response rating, Corn (corn (Zea mays) [10]) | Plant response rating, Corn (corn (Zea mays) [11]) | Plant response rating, Crabgrass, Large [12] | Plant response rating, Barnyardgrass [13] | Plant response rating, Crabgrass, Large [14] | Plant response rating, Foxtail, Giant [15] | Plant response rating, Morningglory [16]
O=C(Nc1ccccc1F)N1C(=O)OCC1c1ccc(F)c(F)c1 (stereo not shown) [Compound 3, 4-(3,4-difluorophenyl)-N-(2-fluorophenyl)-2-oxo-3-oxazolidinecarboxamide] | 0 | 0 | 40 | 0 | 0 | 0 | 0 | 0 | 0 | 0 | 0 | 90 | 20 | 80 | 50 | 
O=C1NCC(c2ccccc2)N1C(=O)Nc1ccccc1 (stereo not shown) [Compound 6] | 0 | 0 | 0 | 0 | 0 | 0 | 0 | 0 | 0 | 0 | 0 | 50 | 0 | 0 | 0 | 0

Reference: patent US11178873B2, “Cyclic N-carboxamide compounds useful as herbicides” (FMC CORPORATION, priority 2015, dated 2021)
